In US11999806B2, “Broad-spectrum polypeptide against enterovirus and application thereof” (WUHAN INSTITUTE OF VIROLOGY, CHINESE ACADEMY OF SCIENCES, priority 2018, dated 2024):
pIC50: −log10 of the molar value. Values joined by “and” are separate entries in the source; they are usually repeats but may differ in a detail not shown here. Equal values may be shown once. No end group written: not given here.

System: EV71
Assay: Anti-EV71 efficiency in RD cells, viral RNA by qRT-PCR
Format: cell-based, enterovirus 71
Details: for Relative viral RNA amount (%): 24 h, control infected without polypeptide
Method: • (1) RD cells were plated in five 100 mm dishes. • (2) After the cells reached 70%-80% confluence, the MEM medium containing 10% serum was replaced with a MEM medium containing 2% serum. […] When the changes were obvious, samples were collected as follows. • (4) The supernatant in the 100 mm dish was transferred into a 15 ml centrifuge tube, and centrifuged at 500 g for 5 min. • (5) The supernatant was transferred into a new 15 ml centrifuge tube, and filtered through 0.22 μm filter membrane with a 50 ml syringe. • (6) RNA was extracted from 100 μl of the supernatant obtained in step (5) and subjected to one step qRT-PCR to measure the virus titer, and the previously extracted virus RNA with known titer was handled together as a control. 3. Measure Antiviral Efficiency of Polypeptide in RD Cells. • (1) Different cells were plated in 24-well cell plates. • (2) After the cells reached 70%-80% confluence, the MEM medium containing 10% serum was replaced with a MEM medium containing 2% serum (0.5 ml/well), and 5 μl of 10^6 PFU/mL EV71 viruses per well were added. • (3) After 1 h, different polypeptides were added at a final concentration of 0.01 μM, 0.1 μM, 1 μM, 10 μM, and 50 μM, respectively. • (4) Samples were collected 24 hours after virus infection, and RNA was extracted with total RNA extraction kit as follows. • (5) The supernatant in the wells was discarded, then 350 μl of TRK Lysis Buffer was added to each well and the plate was shaken on the shaker for 5 minutes. • (6) 350 μl of 70% ethanol (DEPC-treated) was added to the well and the plate was shaken on the shaker for 5 minutes. • (7) The mixture in the well was transferred to a RNA extraction column and centrifuged at 12,000 g for 1 min. • (8) The solution collected in the recovery tube was added back to the column and centrifuged at 12,000 g for 1 min. • (9) RNA washing buffer 1 was added to the column and centrifuged at 12,000 g for 30 s. • (10) RNA washing buffer 2 was added to the column and centrifuged at 12,000 g for 1 min. • (11) Step (10) was repeated once. • (12) The column was centrifuged at 12000 g for 2 min to completely remove residual RNA washing buffer. • (13) 50 μl DEPC-treated H2O was added to the column and centrifuge at 12,000 g for 2 min. • (14) 2 μl RNA sample was used according to one step qRT-PCR kit for fluorescence quantification experiment.
RD cells added with R8 penetrating peptide (sequence: RRRRRRRR) were used as a negative control.
RD cells were used to test the antiviral effect of polypeptide P2. EV71 (MOI=0.1) was added to RD cells at 80% confluence. After 1 hour of infection, polypeptide P2 was added at concentrations of 0.01 μM, 0.1 μM, 1 μM, 10 μM, and 50 μM, respectively. The samples were collected 24 hours later, and the total RNA was extracted. The level of viral genomic RNA was detected by qRT-PCR. The cells infected with the same type virus and added with penetrating peptide R8 were used as a control group.
• (1) RD cells were plated in five 100 mm dishes. • (2) After the cells reached 70%-80% confluence, the MEM medium containing 10% serum was replaced with a MEM medium containing 2% serum. […] When the changes were obvious, samples were collected as follows. • (4) The supernatant in the 100 mm dish was transferred into a 15 ml centrifuge tube, and centrifuged at 500 g for 5 min. • (5) The supernatant was transferred into a new 15 ml centrifuge tube, and filtered through 0.22 μm filter membrane with a 50 ml syringe. • (6) RNA was extracted from 100 μl of the supernatant obtained in step (5) and subjected to one step qRT-PCR to measure the virus titer, and the previously extracted virus RNA with known titer was handled together as a control. 3. […]

Molecule | Relative viral RNA amount (%) (EV71 MOI=0.1, 0.01 μM) | Relative viral RNA amount (%) (EV71 MOI=0.1, 0.1 μM) | Relative viral RNA amount (%) (EV71 MOI=0.1, 1 μM) | pIC50 (read-out: IC50 against EV71 by qRT-PCR)
CCCCCCCCCCCCCCCC(=O)NCCCC[C@H](NC(=O)CCOCCOCCOCCOCCNC(=O)[C@H](CCCCN)NC(=O)[C@H](C)NC(=O)[C@@H]1CCCN1C(=O)[C@@H](NC(=O)[C@@H](NC(=O)[C@H](Cc1c[nH]c2ccccc12)NC(=O)CNC(=O)[C@H](CCC(N)=O)NC(=O)[C@H](CCC(=O)O)NC(=O)[C@H](CCCNC(=N)N)NC(=O)[C@H](CS)NC(=O)[C@H](Cc1ccc(O)cc1)NC(=O)[C@H](CCC(N)=O)NC(=O)[C@H](CCCNC(=N)N)NC(=O)[C@@H](NC(=O)[C@H](CCC(=O)O)NC(=O)[C@@H](N)CCC(=O)O)C(C)C)[C@@H](C)CC)[C@@H](C)CC)C(=O)O [3A-EP-PEG4-PA] | 72.5% and 68.12% and 59.1% | 69.96% and 68.69% and 67.81% | 107.1% and 89.26% and 75.24% | 
RRRRRRRREEVRQYCRDQ [P2] |  |  |  | 5.20
CC[C@@H](C)[C@@H](NC(=O)[C@H]1CCCN1C(C)=O)C(=O)N[C@@H](C(=O)N[C@H](Cc1c[nH]c2ccccc12)C(=O)NCC(=O)N[C@H](CCC(N)=O)C(=O)N[C@H](CCC(=O)O)C(=O)N[C@H](CCCNC(=N)N)C(=O)N[C@H](CS)C(=O)N[C@H](Cc1ccc(O)cc1)C(=O)N[C@H](CCC(N)=O)C(=O)N[C@H](CCCNC(=N)N)C(=O)N[C@@H](C(=O)N[C@H](CCC(=O)O)C(=O)N[C@H](CCC(=O)O)C(=O)N1CCC[C@@H]1C(=O)N1CCC[C@@H]1C(=O)N[C@H](CCCNC(=N)N)C(=O)N[C@H](CCCNC(=N)N)C(=O)N[C@H](CCCNC(=N)N)C(=O)N[C@H](CCC(N)=O)C(=O)N[C@H](CCCNC(=N)N)C(=O)N[C@H](CCCNC(=N)N)C(=O)N[C@H](CCCCN)C(=O)N[C@H](CCCCN)C(=O)N[C@H](CCCNC(=N)N)C(=O)NCC(=O)N[C@H](Cc1ccc(O)cc1)C(N)=O)C(C)C)[C@H](C)CC [3A-EP-DRI] | 75.93% and 73.36% and 72.89% | 72.52% and 70.59% and 61.38% | 100.5% and 95.84% and 90.71% | 
